From paper PMC10762078, “Role of UPF1-LIN28A interaction during early differentiation of pluripotent stem cells” (Nature Communications, 2024)
Ends that are not written are not given here.

Experiments:
hPSCs (CHA15, H9, Pro2) = assay: Long-term culture with CPP-peptides: morphology, spontaneous differentiation, lineage marker RT-qPCR (Supplementary Fig. 6c); type: cell-based, human
Experimental: For CPP-conjugated peptide delivery, HeLa, 293T, and PA-1 cells were incubated with CPP-conjugated peptides or CPP-FITC at 2 μM in DMEM with 10% FBS for 12 h a day before cell harvest. hPSCs were treated with CPP-conjugated peptides at 10 μM in mTeSR Plus Medium, […] The ROCK inhibitor (Tocris Bioscience, Y-27632) treated-hPSCs were dissociated into single cells using Accutase (Merck, SCR005) and differentiated into ectoderm, mesoderm, and endoderm using the STEMdiff Trilineage Differentiation Kit ([…] Technologies, 05230) following the manufacturer’s protocol. Differentiated cells treated with CPP-conjugated peptides were analysed at 0, 3, and 5 days for ectoderm and endoderm, and at 0, 3, and 4 days for mesoderm. […]
cDNA was synthesised using RevertAid Reverse Transcriptase (Thermo Fisher Scientific, EP0441) with synthesised random hexamer (Macrogen) for total RNA or stem-loop primers for miRNA. For RT-qPCR reactions, the SensiFAST SYBR No-ROX kit (Meridian Bioscience) was used according to the manufacturer’s protocol. All data analysis and visualisation were conducted using R 3.6.1 [www.r-project.org] or GraphPad Prism 10. RT primers for miRNA and RT-qPCR primer sequences are provided in Supplementary Data 6. […]
Cell m orphology was visualised by phase contrast m icroscopy. T he red boundary indicated the spontaneously differentiated hPSCs. RT -qPCR was perform ed to m easure the relative levels of each lineage m ark er. […]
5p and m iR-16- 5p was shown as CDF graphs. T he relative level of m RNA was norm alised to that of U6 snRNA in (c, d, and f). K–S tests were used for e and f. Unpaired Student’s t-test was used for c , d, and f . * p < 0.05, ** p < 0.01, *** p < 0.001. Exact p -values were provided in Source data. Data are presented as m ean values ± SEM. All statistical test used were two- sided. T he m inim um num ber of independent biological replicate experim ents was a and e n = 2, b–d and f n = 3. T he experim ents were conducted three tim es, each iteration producing consistent results.

p-UPF1 (Thr28) = assay: Western blot of p-UPF1 (Thr28) in CPP-peptide-treated hPSCs; type: cell-based, human; settings: relative to CPP-P1 = 100, n = 3
Experimental: For CPP-conjugated peptide delivery, HeLa, 293T, and PA-1 cells were incubated with CPP-conjugated peptides or CPP-FITC at 2 μM in DMEM with 10% FBS for 12 h a day before cell harvest. hPSCs were treated with CPP-conjugated peptides at 10 μM in mTeSR Plus Medium, and the peptide-containing medium was changed every day over 10 days. The ROCK inhibitor (Tocris Bioscience, Y-27632) treated-hPSCs were dissociated into single cells using Accutase (Merck, SCR005) and differentiated into ectoderm, mesoderm, and endoderm using the STEMdiff Trilineage Differentiation Kit ([…] Technologies, 05230) following the manufacturer’s protocol. Differentiated cells treated with CPP-conjugated peptides were analysed at 0, 3, and 5 days for ectoderm and endoderm, and at 0, 3, and 4 days for mesoderm.
Protein samples were loaded for electrophoresis on sodium dodecyl sulphate (SDS) polyacrylamide gels, followed by Coomassie blue staining or transferred to nitrocellulose membranes (Cytiva) for WB. After blocking with 5% non-fat milk (Cellconic) in Tris-buffered saline with Tween-20 for 30 min at room temperature, the membranes were incubated with the following primary antibodies: anti-FLAG (GenScript, A00187; 1:2000), UPF1 (Cell Signaling Technology, 12040; 1:4000), UPF2 (Cell Signaling Technology, 11875; 1:2000), eIF4E (Cell Signaling Technology, 2067; 1:2000), β-actin (Sigma-Aldrich, A2228; 1:4000), GST (Cytiva, 27-4577-01; 1:2000), MYC (Calbiochem, OP10; 1:2000), Calnexin (Cell Signaling Technology, 2679; 1:4000), LIN28A (Cell Signaling Technology, 3978; 1:2000), pSer1096 phosphorylated UPF1 (1:2000)[58], or p-Thr28 phosphorylated UPF1 (ImmuQuest, IQ653; 1:2000). Primary antibodies were incubated overnight at 4 °C and then washed thrice with TBS-T, followed by incubation with secondary antibodies: Goat anti-Rabbit IgG (Invitrogen, 31460; 1:4000), Goat anti-Mouse IgG (Invitrogen, 31430; 1:4000), or Horse anti-Goat IgG (Vector Laboratories, PI-9500; 1:4000) for 1 h at room temperature. For pull-downed protein detection, all primary and secondary antibodies were diluted at 1:10,000. The blots were imaged using ChemiDoc XRS+ System (Bio-Rad) and the greyscale intensity values were quantified using Image Lab 3.0 software (Bio-Rad).
DAPI FITC Merge DAPI FITC Merge CHA15 H9 Pro2 H9
No peptide CPP-FITC Calnexin
For 2-day treatm ent For 4-day treatm ent […]
Student’s t-test was used. Data are presented as m ean values ± S.D (b) and mean values ± SEM (c and d). All statistical test us ed wer e two-s ided. T he m inim um num ber of independent biological replicate experim ents was a, b, and d n = 3, c n = 5. T he experim ents wer e conducted three tim es, each iteration producing consistent results. […]

[1] = RT-qPCR, CHA15 cell, group 1, mean of set1-set3, Mean of A = 1
[2] = RT-qPCR, CHA15 cell, group 2, mean of set1-set3, Mean of A = 1
[3] = RT-qPCR, CHA15 cell, group 3, mean of set1-set3, Mean of A = 1
[4] = RT-qPCR, H9 cell, group 1, mean of set1-set3, Mean of A = 1
[5] = RT-qPCR, H9 cell, group 2, mean of set1-set3, Mean of A = 1
[6] = RT-qPCR, Pro2 cell, group 1, mean of set1-set3, Mean of A = 1
[7] = RT-qPCR, Pro2 cell, group 2, mean of set1-set3, Mean of A = 1

With “KKKWCRKKKSSADEKRYRALKRTAERELLMNA [CPP-P8, CPP conjugated to P8]” the “cell morphology and spontaneous differentiation” value (hPSCs (CHA15, H9, Pro2); hPSCs, over 15 days) was “altered the cell morphology, induced spontaneous differentiation, and regulated the levels of differentiated makers” and the “levels of differentiated markers” value (hPSCs (CHA15, H9, Pro2); hPSCs, proliferation) was “upregulated the levels of differentiated markers”.
In the case of KKKWCRKKKSSADEKRYRALKRTAERELLMNA [P8], the “p-UPF1 (Thr28)/Calnexin, mean” value (p-UPF1 (Thr28); CHA15, 2-day treatment) is reported as 277%, the “p-UPF1 (Thr28)/Calnexin, mean” value (p-UPF1 (Thr28); H9, 2-day treatment) is reported as 91% and the “p-UPF1 (Thr28)/Calnexin, mean” value (p-UPF1 (Thr28); H9, 4-day treatment) is reported as 183%. The “p-UPF1 (Thr28)/Calnexin, mean” value (p-UPF1 (Thr28); Pro2, 2-day treatment) was 250%, the “CDH9, Mean of column B” value (hPSCs (CHA15, H9, Pro2); [1]) was 3.237 and the “DLK1, Mean” value (hPSCs (CHA15, H9, Pro2); [1]) was 13.42. For the same substance, the “DMBX1, Mean” value (hPSCs (CHA15, H9, Pro2); [1]) was 7.311, the “RAX, Mean” value (hPSCs (CHA15, H9, Pro2); [1]) was 3.757 and the “DLK1, Mean” value (hPSCs (CHA15, H9, Pro2); [2]) was 23.82. For the same substance, the “LHX2, Mean” value (hPSCs (CHA15, H9, Pro2); [2]) was 41.74, the “POU5F1, Mean of column B” value (hPSCs (CHA15, H9, Pro2); [2]) was 0.6246 and the “RAX, Mean” value (hPSCs (CHA15, H9, Pro2); [2]) was 18.83. For the same substance, the “CDH9, Mean of column B” value (hPSCs (CHA15, H9, Pro2); [3]) was 2.791, the “LHX2, Mean” value (hPSCs (CHA15, H9, Pro2); [3]) was 5.887 and the “POU5F1, Mean of column B” value (hPSCs (CHA15, H9, Pro2); [3]) was 0.7547. For the same substance, the “RAX, Mean” value (hPSCs (CHA15, H9, Pro2); [3]) was 2.315, the “DLK1, Mean” value (hPSCs (CHA15, H9, Pro2); [4]) was 3.511 and the “DMBX1, Mean” value (hPSCs (CHA15, H9, Pro2); [4]) was 5.531. For the same substance, the “LHX2, Mean” value (hPSCs (CHA15, H9, Pro2); [4]) was 2.919, the “PAX6, Mean of column B” value (hPSCs (CHA15, H9, Pro2); [4]) was 3.972 and the “DLK1, Mean” value (hPSCs (CHA15, H9, Pro2); [5]) was 2.588. The “LHX2, Mean” value (hPSCs (CHA15, H9, Pro2); [5]) was 115.8, the “NANOG, Mean” value (hPSCs (CHA15, H9, Pro2); [5]) was 0.1136 and the “TBX6, Mean of column B” value (hPSCs (CHA15, H9, Pro2); [5]) was 22.31. The “DLK1, Mean” value (hPSCs (CHA15, H9, Pro2); [6]) was 6.526, the “LHX2, Mean” value (hPSCs (CHA15, H9, Pro2); [6]) was 0.3053 and the “POU5F1, Mean of column B” value (hPSCs (CHA15, H9, Pro2); [6]) was 0.5752. For the same substance, the “RAX, Mean” value (hPSCs (CHA15, H9, Pro2); [6]) was 3.096, the “DLK1, Mean” value (hPSCs (CHA15, H9, Pro2); [7]) was 9.273 and the “LHX2, Mean” value (hPSCs (CHA15, H9, Pro2); [7]) was 16.93. For the same substance, the “NANOG, Mean” value (hPSCs (CHA15, H9, Pro2); [7]) was 0.2569 and the “POU5F1, Mean of column B” value (hPSCs (CHA15, H9, Pro2); [7]) was 0.08931.
For “N-QKLDQKELQLEPM-C [P1, reference compound]”, the “p-UPF1 (Thr28)/Calnexin, mean” value (p-UPF1 (Thr28); CHA15, 2-day treatment) was 100%, the “p-UPF1 (Thr28)/Calnexin, mean” value (p-UPF1 (Thr28); H9, 2-day treatment) was 100% and the “p-UPF1 (Thr28)/Calnexin, mean” value (p-UPF1 (Thr28); H9, 4-day treatment) was 100%. For the same substance, the “p-UPF1 (Thr28)/Calnexin, mean” value (p-UPF1 (Thr28); Pro2, 2-day treatment) was 100%.
